Experimental data from US8728787B2, “Fungal laccases and uses thereof” (Academia Sinica, priority 2010, dated 2014).
Read-outs that look alike come from different tables or passages of the source.

Tests used:
[1] = test system: Lentinus sp. laccase, wild type, purified from culture; test: Laccase kinetics of purified Lentinus sp. laccase; format: biochemical
Method: All chemicals used in this study were obtained from Merck (Darmstadt, Germany) or Sigma-Aldrich (St. Louis, Mo. USA). All spectrophotometric measurements were performed using the Beckman DU 640 spectrophotometer (Beckman Coulter, USA).
Kinetic parameters Km and Vmax were determined as follows. […] The oxidation reactions of guaiacol and 2,6-DMP were monitored by determining OD436 values (ε=6,400 M^−1cm^−1) and OD468 values (ε=49,600 M^−1 cm^−1), respectively. The kinetic parameters were determined by nonlinear regression analysis (ENZFITTER software program, Elsevier-Biosoft, Cambridge, UK) using the Michaelis-Menten model.
Kinetic parameters were determined following conventional methods. See also Example 1 above.

Agaricus blazei laccase = details: ABTS as substrate, optimum 25 °C at pH 2.3, cited from earlier work
[2] = test system: Trametes C30 laccase LAC2; details: ABTS as substrate, optimum 55 °C at pH 5.7, cited from earlier work
[3] = test system: Pleurofus sajor-caju laccase; details: ABTS as substrate, optimum 40 °C at pH 5.0, cited from earlier work
Cerrena unicolor laccase = details: ABTS as substrate; optimum 70 °C at pH 3.5; cited from earlier work
[4] = test system: Pycnoporus sanguineus laccase; details: ABTS as substrate, optimum 25 °C at pH 3.0, cited from earlier work
[5] = test system: Trametes versicolor laccase; details: ABTS as substrate, optimum 55 °C at pH 4.0, cited from earlier work
[6] = test system: Panus(Lentinus)tigrinus 8/18 laccase; details: ABTS as substrate; cited from earlier work
[7] = test system: Trametes pubescens laccase LAP2; details: ABTS as substrate, optimum 25 °C at pH 4.0, cited from earlier work
Panus tigrinus laccase = details: ABTS as substrate, optimum 30 °C at pH 3.5, cited from earlier work
[8] = substrate: CCn1c(=NN=c2sc3cc(S(=O)(=O)O)ccc3n2CC)sc2cc(S(=O)(=O)O)ccc21; test: purified protein, by the assay type; details: other: ABTS as substrate, 50 mM citrate buffer, 50 °C, pH 3.0
[9] = substrate: COc1ccccc1O; test: Laccase kinetics of purified Cerrena sp. WR1 Lcc3; format: biochemical; details: other: guaiacol as substrate, 50 mM citrate buffer, 70 °C, pH 4.5, pH 4.5
[10] = substrate: COc1cccc(OC)c1O; test: Laccase kinetics of purified Cerrena sp. WR1 Lcc3; format: biochemical; details: other: 2,6-DMP as substrate, 50 mM citrate buffer, 70 °C, pH 3.5, pH 3.5
[11] = Laccase activity in culture media of recombinant P. pastoris; format: biochemical; details: expressed in P. pastoris X-33; 13-26 day (Lcc1-3) or 18-day (LccA) cultivation
Description: The EasySelect™ Pichia Expression System (Invitrogen) was used in this study for expression of Lcc1, Lcc2, and Lcc3 laccases. cDNA fragments coding for these three laccases were cloned into Pichia expression vector pPICZA or pPICZaB via EcoRI and NotI restriction sites. More specifically, the lcc1 gene coding for Lcc1 precursor (including a signal peptide sequence) was cloned into pPICA to generate expression plasmid pPICZA-lcc1 and the lcc2 and lcc3 genes coding for mature Lcc2 and Lcc3 were cloned into pPICZaB to obtain expression plasmids pPICZaB-lcc2 and pPICZaB-lcc3, respectively. The three expression plasmids were introduced into P. pastoris X-33 cells following the method described in Invitrogen's protocol. Positive transformants were cultured in BMMY (1% yeast extract, 2% peptone, 100 mM potassium phosphate, pH 6.0, 1.34% yeast nitrogen base, 0.00004% biotin, and 0.5% methanol) at 25° C., 200 rpm for 12-26 days. Methanol was added to the culture media daily to reach a final concentration of 0.5%. During the cultivation, 1 ml of the supernatant was collected at various time points. The laccase activity and cell density in the supernatant were determined following the method described above or routine procedures.
pPICZ-lccA was introduced into Pichia pastoris strain X-33 host cells (Invitrogen) and positive transformants were selected for LccA expression. Briefly, a positive transformant was cultured in BMMY medium containing 1% yeast extract, 2% peptone, 1.34% yeast nitrogen base, 0.00004% biotin, and 0.5% methanol at 25° C. and 200 rpm for 20 days. Methanol was daily added to reach a final concentration of 0.5%. Within the 20-day cultivation, 1 ml of the supernatant was collected; laccase activity and cell growth were determined.

[12] = 2,6-DMP as substrate, optimum 60 °C at pH 3.5
[13] = guaiacol as substrate, optimum 70 °C at pH 5.0
[14] = ABTS as substrate, optimum 70 °C at pH 2.5

For `COc1cccc(OC)c1O` [2,6-DMP, 2,6-dimethoxyphenol], which Km [1, 12] is on record?
Its Km is 434 µM.

What about the kcat [1, 12] of the same molecule?
The kcat was 121.9 s⁻¹.

With `COc1ccccc1O` [guaiacol] as the molecule, how does the Km [1, 13] read?
Its Km is 524 µM.

What about the kcat [1, 13] of the same molecule?
Its kcat is 305.5 s⁻¹.

With `CCn1c(=NN=c2sc3cc(S(=O)(=O)O)ccc3n2CC)sc2cc(S(=O)(=O)O)ccc21` [ABTS, 2,2′-azino-bis-(3-ethylbenzthiazoline-6-sulfonic acid)] as the molecule, how does the Km (Agaricus blazei laccase; Table 2) read?
Its Km is 63 µM.

And the Km (Agaricus blazei laccase; Table 4)?
Its Km is 63 µM.

And the kcat (Agaricus blazei laccase)?
The kcat was 21 s⁻¹.

What about the Km ([2]; Table 2) of the same molecule?
The Km was 536 µM.

What about the Km ([2]; Table 4) of the same molecule?
Its Km is 536 µM.

What about the kcat [2] of the same molecule?
Its kcat is 683.33 s⁻¹.

What about the Km ([3]; Table 2) of the same molecule?
Its Km is 56 µM.

And the Km ([3]; Table 4)?
Its Km is 56 µM.

And the kcat [3]?
Its kcat is 520.24 s⁻¹.

And the Km (Cerrena unicolor laccase)?
The Km was 800 µM.

What about the Km [1, 14] of the same molecule?
The Km was 8.4 µM.

And the kcat [1, 14]?
The kcat was 2016.5 s⁻¹.

What about the Km ([4]; Table 2) of the same molecule?
Its Km is 77 µM.

What about the Km ([4]; Table 4) of the same molecule?
Its Km is 77 µM.

What about the kcat [4] of the same molecule?
Its kcat is 1.155 s⁻¹.

What about the Km ([5]; Table 2) of the same molecule?
Its Km is 37.3 µM.

And the Km ([5]; Table 4)?
The Km was 37.3 µM.

And the kcat [5]?
The kcat was 351.3 s⁻¹.

And the Km [6]?
Its Km is 33.4 µM.

What about the Km ([7]; Table 2) of the same molecule?
The Km was 43 µM.

What about the Km ([7]; Table 4) of the same molecule?
The Km was 43 µM.

What about the kcat [7] of the same molecule?
The kcat was 350 s⁻¹.

What about the Km (Panus tigrinus laccase; Table 2) of the same molecule?
The Km was 31 µM.

What about the Km (Panus tigrinus laccase; Table 4) of the same molecule?
The Km was 31 µM.

What about the kcat (Panus tigrinus laccase) of the same molecule?
Its kcat is 185.69 s⁻¹.

B1: Cerrena sp. WR1 laccase Lcc3, wild type (mature SEQ ID NO: 3; precursor SEQ ID NO: 9; GenBank GQ899203) (Cerrena sp. WR1) (protein)
chain: AIGPVADLHITDANVSPDGFTRPAVLAGGTFPGPLITGKQGDNFQINVIDELTDATMLKSTSIHWHGIFQKGTNWADGPSFVNQCPITTGNSFLYDFSVPDQTGTYWYHSHLSTQYCDGLRGALVIYDDNDPHKDLYDVDDETTVITLADWYHTQARLITGVPVSDATLINGLGRYLNGPTDAPLAVITVDQGKRYRFRLVSISCDPNFVFSIDNHSMTVIEVDAVNSQPLVVDSIQIFAAQRYSFILNANQSVGNYWIRANPNLGNTGFTNGINSAILRYNGAPVAEPNTTQTASTNPLNEVNLHPLVPTPVPGTPQPGGVDVVQNLVLGFSGGKFTINGVAFSPPTVPVLLQILSGTTTAQDLLPTGSIIELPLGKTVELTLAAGVLGGPHPFHLHGHTFHVVRSAGQTTPNYVDPILRDTVNTGAAGDNVTIRFTTDNPGPWFLHCHIDWHLEAGFAVVFAEGLNQTNAANPTPDAWNNLCDLYNALPAGDQ
notes: WR1 culture supernatant (Q Sepharose); precursor 516 aa with 21-residue signal peptide
For B1, which Km [8] is on record?
Its Km is 3.27 µM.

What about the kcat [8] of the same molecule?
Its kcat is 934.6 s⁻¹.

What about the Km [9] of the same molecule?
Its Km is 849.1 µM.

What about the kcat [9] of the same molecule?
The kcat was 148 s⁻¹.

What about the Km [10] of the same molecule?
Its Km is 392.7 µM.

And the kcat [10]?
Its kcat is 109 s⁻¹.

What about the kcat/Km [10] of the same molecule?
Its kcat/Km is 280000 M⁻¹ s⁻¹.

B2: LccA: laccase from Lentinus sp., GenBank accession no. FJ693715; SEQ ID NO:4 mature, 10 precursor (protein)
chain: GIGPIASLVVTDAQISPDGYLRDAIVTNGVFPAPLITGRKGDHFQLNVVDSMTNHTMLKSTSIHWHGFFQKGTNWADGPAFVNQCPISSGHSFLYDFHVPDQAGTFWYHSHLSTQYCDGLRGPMVVYDPNDPHANLYDIDNDSTVITLADWYHVAAKLGPRFPLGADATLINGKGRSPATPTAALSVINVVKGKRYRFRLVSISCDPNYVFSIDNHTMTVIEADTVNTQPLAVDSIQIFAAQRYSFILNANQPVDNYWIRANPNFGNVGFTDGINSAILRYTGAALVEPSATTAPTLSNPLVETNLHPLAPMPVPGQPVSGGVDKAINFAFNFDGTDFFINGASFVPPTVPVLLQIMSGASTAQDLLPSGSVYPLPSNATIELSFPATAAAPGAPHPFHLHGHVFAVVRSAGSTTYNYNNPIWRDVVSTGTPAAGDNVTIRFSTNNPGPWFLHCHIDFHLEAGFAVVMAEDVPDIPSANPVPQAWSNLCPTYNALSSDDQ
modifications: Lentinus sp
Which “laccase activity in culture media” value [11] does the source give for B2 here?
Its value is “about 400 U/L”.

B3: Lcc1: laccase from Cerrena sp. WR1, GenBank accession no. GQ899201; SEQ ID NO:1 mature, 7 precursor (protein)
chain: AIGPVTDLEITNGTISPDGYSRAAVLAGGSFPGPLITGNKSDNFQINVVNSLADSDMLKSTTVHWHGFFQKGTNWADGPAFVNQCPIATGNSFLYNFNATDQAGTFWYHSHLETQYCDGLRGPMVVYDPDDPHADLYDVDDDSTVITLADWYHTLARLGAAFPTSDATLINGLGRYSDGNTTDLAVITVESGKRYRFRLVSISCDPNFTFSIDNHTMTIIEADAVNYTPLDVDEIQIFAGQRYSFILTANQTVDNYWIRADPNVGTTGFDNGINSAILRYSGADEVEPTTNQTTSTNPLVEANLVPLDGAAAPGEAVAGGVDYALNLALAFDGTNLDFTVNGYEYTSPTVPVLLQILSGASSVDDLLPSGSIYSLPSNSTIELSIPALAVGAPHPIHLHGHTFSVVRSAGSTTYNYDNPPRRDVVSIGTATDDNVTIRFTTDNPGPWFLHCHIDFHLEAGFAVVFAEDFNDTASANTVTTEWSDLCTTYDALSSDDL
modifications: Cerrena sp
For B3, which “laccase activity in culture media” value [11] is on record?
The value was “approximately 800 U/L”.

B4: Lcc2: laccase from Cerrena sp. WR1, GenBank accession no. GQ899202; SEQ ID NO:2 mature, 8 precursor (protein)
chain: AIGPVTDLTITNATISPDGFSRQAVLAGGVFPGPLITGNKGDNFQINVVNSLENSDMLKSTTIHWHGFFQKGTNWADGPAFVNQCPIATGNSFLYNFNADDQAGTFWYHSHLSTQYCDGLRGPMVVYDPNDPHASLYDVDDESTVITLADWYHTLARLGAAFPTADATLINGLGRYSDGTTSDLAVITVESGKRYRFRLVNISCDPNYTFSIDNHTFTVIEVDGVNHAALDVDEIQIFAGQRYSFVLTANQTVDNYWIRANPNLGTTGFDNGINSAILRYSGANETEPTTTQTTATAALSEASLVPLEDPAAPGEAVAGGVDYALNLAFAFDGANLDFTVNGETYVSPTVPVLLQILSGASSVSDLLPAGSVYSLPSNSTIELSMPGGVVGGGHPLHLHGHAFSVVRSAGSDTYNYVNPPRRDVVNIGAAGDNVTIRFTTDNPGPWFLHCHIDFHLEAGFAVVFAEDFNATASSNTVTTEWSNLCTTYDALSADDQ
modifications: Cerrena sp
Which “laccase activity in culture media” value [11] does the source give for B4 here?
Its value is about 160 U/L.
